Measurements published in patent US4578400A, “Therapeutic composition and method for treatment of cardiovascular diseases” (priority 1982, dated 1986).

Key:
[1] = tested on: chloroform-induced arrhythmia (ventricular fibrillation); experiment: Effect on chloroform-induced arrhythmia; type: in vivo, male ddy mice; details: for Percent occurrence of ventricular fibrillation: control 100; for anti-arrhythmic potency compared with lidocaine (in words): 100 mg/kg oral vs lidocaine 10 mg/kg i.p.
Text: When they stopped breathing, they were thoracotomized to examine the occurrence of ventricular fribrillation. The results are noted in Table 2 as percent occurrence of ventricular fibrillation.

Acute toxicity = details: one week observation
Text: Male ddy mice weighing about 25 g were divided into groups of 10 animals and orally administered once with 3 g/kg of 5--HDA, 5--HDA--Na, 5--HDAE, 5--HDA--DHP or δ-DL, or intraperitoneally injected once with 1 g/kg of said compounds.

[2] = Solubility (physicochemical properties, Table 1)
[3] = tested on: ouabain induced arrhythmia; experiment: Effect on ouabain induced arrhythmia; type: in vivo, male hartley guinea pigs; details: for relative time for extrasystole to occur / relative time for ventricular fibrillation to occur / relative time for cardiac arrest to occur: control = 100; for relative time for ventricular fibrillation to occur: *P < 0.05; for antiarrhythmic effects (in words): ouabain induced arrhythmia
Text: Effect on ouabain induced arrhythmia
The procedure described in Matsubara et al. (Folia Pharmacologica Japonica, 72, 557-571, 1976) was followed.
Male hartley guinea pigs were divided into groups of 8 animals and anesthetized with intraperitoneal urethane. Three groups were orally administered 5--HDA--Na, 5--HDAE and 5--HDA--DHP dissolved in distilled water. Another group was intravenously injected with 5--HDA--Na dissolved in physiological saline. One group was orally administered δ-DL emulsified in 5% aqueous arabic gum solution. One group was injected intravenously with lidocaine dissolved in physiological saline. For the respective routes of administration, control groups were administered the solvents used in administration of the test compounds. Thirty minutes after the oral administration and one minute after the intravenous injection, ouabain was infused into the jugular vein at a rate of 5 μg/kg/min until extrasystole, ventricular fibrillation and cardiac arrest appeared on a standard limb lead II of ECG. The results are shown in Table 3, with the time necessary for the respective symptoms to occur in the control groups taken as 100.

[4] = Lowering serum lipid levels in Triton-induced hyperlipidemic rats; type: in vivo, male Wistar rats; details: for inhibition rate, total cholesterol (serum) / inhibition rate, triglyceride (serum): 100 mg/kg oral, four times, against control, 10 hours after Triton WR-1339, *P < 0.05; for antilipidemic effects compared with Clofibrate (in words): 100 mg/kg, oral
Procedure: After 10 hours, blood samples were drawn to determine the serum levels of total cholesterol and triglyceride.

[5] = tested on: chloroform-induced arrhythmia (ventricular fibrillation); details: stated without own data; cited from earlier work
[6] = tested on: ventricular fibrillation after coronary artery ligation; experiment: Antiarrhythmic effects on myocardial infarction (coronary ligation); type: in vivo, dogs; details: before ligation = 100, control 41
Text: Antiarrhythmic effects on myocardial infarction
The method described by Shinohara (Jap. Circul. J., 32, 1269-1281, 1968) was used. Dogs were divided into groups of 5 animals, anesthetized with intravenous pentobarbital and were thoracotomized under artificial respiration, and a platinum bipolar electrode was inserted on the wall of the right atrium. Then the sinus node was crushed and the animals were subjected to pacing (2.5 Hz, 3 msec, 3.5-8 V) with an electronic stimulator. The left anterior descending coronary artery was doubly ligated at a site 2 cm away from its origin (A. S. Harris, Circulation, 1, 1318, 1950). Then 5--HDA--Na and lidocaine were injected into the femoral vein of the respective dogs. Using an electrode inserted in an ischemic zone in the left ventricle, the animals were given 15 to 20 successive electrical shocks before the ligation and 30 minutes after the ligation and administration. The threshold level necessary for inducing ventricular fibrillation was determined for each group of animals and shown in Table 4, with the values before the ligation taken as 100.

[7] = target: T1, 3-hydroxy-3-methylglutaryl coenzyme A (HMG-Co A) reductase (Rattus norvegicus, UniProt P51639); experiment: Inhibition of HMG-CoA reductase activity; type: biochemical, rat (liver microsome); details: rat liver microsome; read-out: IC30 (amount necessary for inhibiting the enzymatic activity by 30%)
T1 sequence (P51639 1-887): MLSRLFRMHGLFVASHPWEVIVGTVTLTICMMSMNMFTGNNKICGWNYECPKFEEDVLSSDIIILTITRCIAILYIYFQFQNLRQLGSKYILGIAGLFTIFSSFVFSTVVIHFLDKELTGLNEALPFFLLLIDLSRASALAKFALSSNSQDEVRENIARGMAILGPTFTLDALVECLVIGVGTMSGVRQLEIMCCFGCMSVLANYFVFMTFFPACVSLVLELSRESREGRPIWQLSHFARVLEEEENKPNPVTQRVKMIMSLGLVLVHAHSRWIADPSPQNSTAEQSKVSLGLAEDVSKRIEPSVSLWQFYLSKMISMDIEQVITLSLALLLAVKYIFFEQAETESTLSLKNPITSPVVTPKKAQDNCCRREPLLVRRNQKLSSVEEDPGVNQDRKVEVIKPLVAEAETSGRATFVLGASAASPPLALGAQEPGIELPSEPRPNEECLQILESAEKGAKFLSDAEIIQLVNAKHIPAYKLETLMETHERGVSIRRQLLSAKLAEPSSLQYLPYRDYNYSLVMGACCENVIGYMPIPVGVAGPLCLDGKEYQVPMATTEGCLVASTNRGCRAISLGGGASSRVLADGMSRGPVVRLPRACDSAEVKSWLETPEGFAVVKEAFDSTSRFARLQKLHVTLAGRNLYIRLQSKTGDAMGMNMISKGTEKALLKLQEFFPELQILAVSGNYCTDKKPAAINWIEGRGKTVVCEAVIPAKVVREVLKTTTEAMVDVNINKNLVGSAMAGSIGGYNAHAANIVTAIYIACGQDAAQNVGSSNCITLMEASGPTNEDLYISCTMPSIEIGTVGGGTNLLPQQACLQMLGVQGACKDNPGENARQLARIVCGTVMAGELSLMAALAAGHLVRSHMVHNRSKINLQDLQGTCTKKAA
Text: Inhibition of the activity of 3-hydroxy-3-methylglutaryl coenzyme A (HMG-Co A) reductase

[8] = Lowering serum cholesterol levels in hyperlipidemic rabbits; type: in vivo, male Japanese white rabbits; details: 100 mg/kg oral daily for 7 days
Text: Male Japanese white rabbits weighing about 2.5 kg were fed on a solid diet containing 1% cholesterol (RC-4, Nippon Crea Co., Ltd.) for 10 weeks until hypercholesterolemia fully developed. The rabbits were then divided into groups of 5 animals, and 5--HDA--Na or δ-DL was orally admininistered daily for 7 days, either as a solution or as an emulsion in 5% aqueous arabic gum. Three hours after the last administration, blood was drawn to determine the serum level of cholesterol.

[9] = 100 mg/kg, oral, 15 min before chloroform, *P < 0.05
[10] = oral, 100 mg/kg, *P < 0.05 where starred

Row | SMILES | anti-arrhythmic potency compared with lidocaine (in words) [1] | anti-arrhythmic effects (in words) ([1]; 100 mg/kg, oral) | Percent occurrence of ventricular fibrillation [1, 9] | acute toxicity: abnormality (Acute toxicity; 1 g/kg intraperitoneal once) | acute toxicity: death (Acute toxicity; 1 g/kg intraperitoneal once) | acute toxicity: abnormality (Acute toxicity; 3 g/kg oral once) | acute toxicity: death (Acute toxicity; 3 g/kg oral once) | solubility in acetone [2] | solubility in benzene [2] | solubility in chloroform [2] | solubility in methanol [2] | solubility in water [2] | relative time for extrasystole to occur ([3]; oral, 100 mg/kg) | relative time for ventricular fibrillation to occur ([3]; oral, 100 mg/kg) | relative time for cardiac arrest to occur [3, 10] | antiarrhythmic effects (in words) [3] | inhibition rate, total cholesterol (serum) [4] [%] | inhibition rate, triglyceride (serum) [4] [%] | antilipidemic effects compared with Clofibrate (in words) [4] | also measured
1 | CCCCCC(O)CCCC(=O)O (stereo not shown) [5-HDA, 5-hydroxy-decanoic acid] | more potent than lidocaine | significant anti-arrhythmic effects | 30 | no abnormality occurred | no animal died | no abnormality occurred | no animal died | easily | easily | easily | easily | sparingly | – | – | – | – | – | – | – | Percent occurrence of ventricular fibrillation ([1]; 50 mg/kg, oral, 15 min before chloroform): 60
2 | CCCCCC(O)CCCC(=O)OCC(O)CO (stereo not shown) [5-HDA-DHP, 2',3'-dihydroxy-propyl-5-hydroxydecanoate] | more potent than lidocaine | significant anti-arrhythmic effects | 20 | no abnormality occurred | no animal died | no abnormality occurred | no animal died | easily | – | easily | easily | soluble | 193 | 139 | 122 | significant antiarrhythmic effects | 19 | 18 | equipotent to or stronger than the effect of the known anti-lipidemic agent, Clofibrate | –
3 | CCN(CC)CC(=O)Nc1c(C)cccc1C [Lidocaine, reference compound] | – | – | – | – | – | – | – | – | – | – | – | – | – | – | – | – | – | – | – | Percent occurrence of ventricular fibrillation ([1]; 10 mg/kg, intraperitoneally 5 minutes before chloroform): 40; relative time for cardiac arrest to occur ([3]; i.v., 10 mg/kg): 118; relative time for extrasystole to occur ([3]; i.v., 10 mg/kg): 133; relative time for ventricular fibrillation to occur ([3]; i.v., 10 mg/kg): 129; effectiveness by oral administration (in words) [5]: not effective by oral administration; Threshold level for inducing ventricular fibrillation, 30 min after ligation ([6]; 0.3 mg/kg i.v.): 68; Threshold level for inducing ventricular fibrillation, 30 min after ligation ([6]; 1.0 mg/kg i.v., *P < 0.05): 84
4 | CCCCCC(O)CCCC(=O)OCC (stereo not shown) [5-HDAE, Ethyl-5-hydroxy-decanoate] | more potent than lidocaine | significant anti-arrhythmic effects | 30 | no abnormality occurred | no animal died | no abnormality occurred | no animal died | easily | easily | easily | easily | sparingly | 151 | 146 | 132 | significant antiarrhythmic effects | 19 | 17 | equipotent to or stronger than the effect of the known anti-lipidemic agent, Clofibrate | –
5 | CC[C@H](C)C(=O)O[C@H]1CCC=C2C=C[C@H](C)[C@H](CC[C@@H]3C[C@@H](O)CC(=O)O3)[C@H]21 [Compactin, reference compound] | – | – | – | – | – | – | – | – | – | – | – | – | – | – | – | – | – | – | – | IC30 [7]: 30 µM
6 | CCCCCC1CCCC(=O)O1 (stereo not drawn) [δ-DL, δ-decalactone] | more potent than lidocaine | significant anti-arrhythmic effects | 30 | no abnormality occurred | no animal died | no abnormality occurred | no animal died | easily | easily | easily | easily | insoluble | 157 | 137 | 140 | significant antiarrhythmic effects | 23 | 11 | equipotent to or stronger than the effect of the known anti-lipidemic agent, Clofibrate | serum level of total cholesterol (in words) [8]: lowered the serum level of total cholesterol; Total serum cholesterol ([8]; 3 h after last administration, control 1,394, *P < 0.05): 1,141 mg/dl; solubility in hexane ([2]; hexane): easily
7 | CCOC(=O)C(C)(C)Oc1ccc(Cl)cc1 [Clofibrate, reference compound] | – | – | – | – | – | – | – | – | – | – | – | – | – | – | – | – | 14 | 16 | – | –
